# “Also recorded” adds a separate entry of the source.
# How the values were obtained:
# [1] = Solubility in DMSO (stock solutions); type: physicochemical; settings: in comparison to the other compounds / earlier aliquot
# Method: Therefore, a 25 mM stock solutions for all the compounds except for C3 and C4 were prepared. The stock solutions for C3 and C4 were prepared at 5 mM and 7.5 mM, respectively. C1 is the parent compound—cromolyn disodium.
# BV2-CD33^WT cells = experiment: Aβ42 uptake ELISA, 3 h cromolyn derivative treatment, BV2-CD33^WT; type: cell-based
# Method: (§1) To investigate the effect of cromolyn derivatives on Aβ42 uptake in microglia, naïve BV2 or BV2-CD33^WT cells were plated in proliferating media. On the following day, cells were treated with DMSO (control) or the compounds at different concentrations in proliferating media for 3 hours. […] Afterwards, cells were washed with PBS and treated with DMSO or compounds in the presence of the untagged Aβ42 peptide (400 nM) in DMEM media for 2 hours. Compound toxicity was assessed in the media collected at the end of the treatment with CytoTox-ONE™ lactate dehydrogenase (LDH) assay. The remaining cells in the plate were washed with cold PBS and lysed with RIPA buffer supplemented with protease and phosphatase inhibitors. Protein concentrations in the lysate supernatants were determined using the Pierce™ BCA protein assay kit and 2-3 μg/well of total protein from each lysate was analyzed for Aβ42 uptake using the Aβ42 ELISA kit from Wako. Toxic compound concentrations were excluded from further studies.
# Further, whether cromolyn derivatives impact Aβ42 uptake and clearance in BV2-CD33^WT cells was determined by two independent sets of experiments. BV2-CD33^WT cells were treated with DMSO (control) or cromolyn derivatives at different concentrations ranging between 5 and 150 μM.
# The compound C2 was tested with other cromolyn derivatives in the second set of experiments.
# [2] = test system: naïve BV2 microglial cells; experiment: Aβ42 uptake ELISA, 3 h cromolyn derivative treatment, naïve BV2; type: cell-based; settings: 3 hours + 2 hours
# Method: as §1
# To test whether cromolyn derivatives modulate Aβ42 uptake, naïve BV2 microglial cells were treated with DMSO (control) or cromolyn derivative compounds at different concentrations for 3 hours. Afterwards, the cells were washed and treated with DMSO or compounds in the presence of untagged Aβ42 peptide for 2 hours. At the end of the treatment, the cell lysates were collected. […]
# [3] = test system: naïve BV2 microglial cells; experiment: CytoTox-ONE lactate dehydrogenase (LDH) toxicity assay; type: cell-based; settings: 3 hours + 2 hours with Aβ42
# Method: On the following day, cells were treated with DMSO (control) or the compounds at different concentrations in proliferating media for 3 hours. […] Afterwards, cells were washed with PBS and treated with DMSO or compounds in the presence of the untagged Aβ42 peptide (400 nM) in DMEM media for 2 hours. Compound toxicity was assessed in the media collected at the end of the treatment with CytoTox-ONETM lactate dehydrogenase (LDH) assay. The remaining cells in the plate were washed with cold PBS and lysed with RIPA buffer supplemented with protease and phosphatase inhibitors. […] Toxic compound concentrations were excluded from further studies. To investigate whether cromolyn derivatives induce cytotoxicity at higher doses, naïve BV2 microglial cells were incubated with DMSO (vehicle) or cromolyn derivatives at different concentrations for 3 hours. The cells were then washed and incubated with DMSO or compounds and soluble untagged Aβ42 for additional 2 hours. Afterwards, the cell media was collected and measured LDH released by the damaged cells to identify the compounds that induce cytolysis.
# BV2 microglial cells = experiment: Aβ42 uptake in BV2 microglial cell cultures, cromolyn and/or ibuprofen (ELISA); type: cell-based; settings: 10 μM, 100 μM, 1 mM; 16 hours, then 3 hours with soluble Aβ42
# Method: BV2 microglial cell cultures were treated with cromolyn and/or ibuprofen (10 μM, 100 μM, 1 mM) for 16 hours. Afterwards, cells were incubated with soluble Aβ42 and the compounds for 3 hours. After incubation, cells were collected for ELISA analysis. […] Results were derived from three independent experiments; **p<0.01, ***p<0.001, one-way ANOVA, Tukey's test). Data are represented as mean±SEM.
smiles,measurement,setting,value
"O=C(O)c1cc(=O)c2c(OCC(O)COc3cccc4oc(C(=O)O)cc(=O)c34)cccc2o1 [C1, Cromolyn Disodium, reference compound]",solubility in DMSO,[1],lower solubility in DMSO
O=c1cc(CO)oc2cccc(OCC(F)COc3cccc4oc(CO)cc(=O)c34)c12 [C6],Aβ42 uptake,"BV2-CD33^WT cells; different concentrations, first set of experiments, vs DMSO",dose-dependent effect in mediating inhibition of Aβ42 uptake
same,Aβ42 uptake,[2]; different concentrations,robust inhibition of Aβ42 uptake
CCOC(=O)c1cc(=O)c2c(OCC(F)COc3cccc4oc(C(=O)OCC)cc(=O)c34)cccc2o1 [C4],solubility in DMSO,[1],lower solubility in DMSO
same,Aβ42 uptake,"BV2-CD33^WT cells; 50 μM, first set of experiments",dose-dependent effect
same,Aβ42 uptake in comparison to DMSO,"BV2-CD33^WT cells; 75 μM, first set of experiments",two-fold increase; also recorded: increased uptake of Aβ42
same,Aβ42 uptake,"BV2-CD33^WT cells; 75 μM, second set of experiments",most effective in increasing the Aβ42 uptake
same,Aβ42 uptake,"BV2-CD33^WT cells; 50 and 75 μM, second set of experiments, vs DMSO",effectively induced Aβ42 uptake
same,IC50,"BV2-CD33^WT cells; GraphPad Prism 7, first set of experiments",54.7 µM
same,CD33-mediated inhibition of Aβ uptake and clearance,BV2-CD33^WT cells; both sets of experiments,reversed the CD33-mediated inhibition of Aβ uptake and clearance
same,Aβ42 uptake,"BV2-CD33^WT cells; lower concentrations, second set of experiments, vs DMSO",dose-dependent effect at lower concentrations
same,Aβ42 uptake,"[2]; 75 μM, vs vehicle",increased uptake of Aβ42 peptide; also recorded: significantly increased Aβ42 uptake levels
CC(C)(C)C(=O)OCOC(=O)c1cc(=O)c2c(OCC(O)COc3cccc4oc(C(=O)OCOC(=O)C(C)(C)C)cc(=O)c34)cccc2o1 [C8],toxicity (LDH released),"[3]; 100 and 150 μM, vs DMSO",showing toxicity; also recorded: increased toxicity
same,concentration at which toxicity is displayed in LDH assay,[3],≥ 100 µM
CC(C)Cc1ccc(C(C)C(=O)O)cc1 (stereo not shown) [ibuprofen],microglial Aβ42 uptake,BV2 microglial cells,not ibuprofen promotes microglial Aβ42 uptake
CCOC(=O)c1cc(=O)c2c(OCC(O)COc3cccc4oc(C(=O)OCC)cc(=O)c34)cccc2o1 [C3],solubility in DMSO,[1],lower solubility in DMSO

# Reference: patent US11679095B2, “Macrophages/microglia in neuro-inflammation associated with neurodegenerative diseases” (The General Hospital Corporation, priority 2016, dated 2023)
